In patent publication US20230020663A1, “SULFONAMIDE INHIBITORS AS CTPS1 INHIBITORS” (Step Pharma S.A.S., priority 2019, published 2023):
Like-named read-outs stand apart in the source and are kept apart here. One block for each molecule: values may come before it.

What was measured:
[1] = target: T1, human CTPS1 (Homo sapiens, UniProt P17812); experiment: Human CTPS1 enzyme inhibition (ADP-Glo Max assay); format: biochemical
T1 construct: purchased Proteros biostructures GmbH
T1 sequence (P17812 1-591): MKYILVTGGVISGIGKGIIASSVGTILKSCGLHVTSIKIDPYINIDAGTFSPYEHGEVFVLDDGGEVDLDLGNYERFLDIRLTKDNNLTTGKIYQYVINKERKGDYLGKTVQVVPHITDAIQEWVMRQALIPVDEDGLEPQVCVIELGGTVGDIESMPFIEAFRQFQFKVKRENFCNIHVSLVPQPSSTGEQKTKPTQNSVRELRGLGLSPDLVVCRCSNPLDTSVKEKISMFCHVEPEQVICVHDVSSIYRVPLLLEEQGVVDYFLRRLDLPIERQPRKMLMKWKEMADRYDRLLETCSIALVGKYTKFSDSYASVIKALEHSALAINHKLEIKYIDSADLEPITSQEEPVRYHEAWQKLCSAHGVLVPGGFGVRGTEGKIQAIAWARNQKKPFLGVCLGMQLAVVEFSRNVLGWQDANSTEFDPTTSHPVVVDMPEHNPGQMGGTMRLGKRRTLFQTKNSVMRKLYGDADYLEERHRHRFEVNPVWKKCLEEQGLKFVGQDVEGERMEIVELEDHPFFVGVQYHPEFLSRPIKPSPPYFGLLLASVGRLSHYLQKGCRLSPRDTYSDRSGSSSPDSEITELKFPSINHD
Procedure: The enzyme inhibitory activities of compounds invented against the target of interest were determined using the ADP-Glo™ Max assay (Promega, UK). Assays for human CTPS1 were performed in 1× assay buffer containing 50 mM Tris, 10 mM MgCl2, 0.01% Tween-20, pH to 8.0 accordingly. Finally, immediately before use, L-cysteine was added to the 1× assay buffer to a final concentration of 2 mM. All reagents are from Sigma-Aldrich unless specified otherwise. Human full length active C-terminal FLAG-Hiss-tag CTPS1 (UniProtKB—P17812, CTPS[1-591]-[…]) was obtained from Proteros biostructures GmbH.
3× human CTPS1 protein was prepared in 1× assay buffer to the final working protein concentration required for the reaction. A 2 uL volume per well of 3× human CTPS1 protein was mixed with 2 uL per well of 3× test compound (compound prepared in 1× assay buffer to an appropriate final 3× compound concentration respective to the concentration response curve designed for the compounds under test) for 10 minutes at 25° C. The enzymatic reaction was then initiated by addition of a 2 uL per well volume of a pre-mixed substrate mix (UltraPure ATP from ADP-Glo™ Max kit (0.31 mM), GTP (0.034 mM), UTP (0.48 mM) and L-glutamine (0.186 mM)) and the mixture was incubated for an appropriate amount of time within the determined linear phase of the reaction at 25° C. under sealed plate conditions with constant agitation at 500 revolutions per minute (rpm). ADP-Glo™ Max reagent was added for 60 minutes (6 μL per well) and subsequently ADP-Glo™ Max development reagent was added for 60 minutes (12 uL per well) prior to signal detection in a microplate reader (EnVision® Multilabel Reader, Perkin Elmer). Following each reagent addition over the course of the assay, assay plates were pulse centrifuged for 30 seconds at 500 rpm.
In all cases, the enzyme converts ATP to ADP and the ADP-Glo™ Max reagent subsequently depletes any remaining endogenous ATP in the reaction system. The ADP-Glo™ Max detection reagent converts the ADP that has been enzymatically produced back into ATP and using ATP as a substrate together with luciferin for the enzyme luciferase, light is generated which produces a detectable luminescence. […] The percentage inhibition produced by each concentration of compound was calculated using the equation shown below: […]
(§1) Percentage inhibition was then plotted against compound concentration, and the 50% inhibitory concentration (IC50) was determined from the resultant concentration-response curve.

[2] = system: human CTPS1 versus CTPS2; experiment: Human CTPS1 versus CTPS2 selectivity assessment by RapidFire/MS analysis; format: biochemical; conditions: RapidFire/MS IC50 ratio
Procedure: Human CTPS1 versus CTPS2 Selectivity Assessment by RapidFire/MS Analysis.
The enzyme inhibitory activities against each target isoform of interest may be determined for the compounds of the invention using an optimised RapidFire high-throughput mass spectrometry (RF/MS) assay format. RF/MS assays for both human CTPS1 and CTPS2 may be performed in assay buffer consisting of 50 mM HEPES (Merck), 20 mM MgCl2, 5 mM KCl, 1 mM DTT, 0.01% Tween-20, pH to 8.0 accordingly. Human full-length active C-terminal FLAG-His-tag CTPS1 (UniProtKB—P17812, CTPS[1-591]-[…]) may be obtained from Proteros biostructures GmbH. Human full length active C-terminal FLAG-His-Avi tagged CTPS2 (UniProtKB-Q9NRF8, CTPS2 [1-586]-[…]) may be obtained from Harker Bio.
Human CTPS (1 or 2) protein may be prepared in 1× assay buffer to the final working protein concentration required for the reaction. A 2 uL volume per well of 2×CTPS (1 or 2) protein may be mixed with 40 nL of compound using acoustic (ECHO) delivery and incubated for 10 minutes at 25° C. Each isoform enzymatic reaction may be subsequently initiated by addition of 2 uL per well of a 2× substrate mix in assay buffer. For hCTPS1: ATP (0.3 mM), UTP (0.2 mM), GTP (0.07 mM) and L-glutamine (0.1 mM). For hCTPS2: ATP (0.1 mM), UTP (0.04 mM), GTP (0.03 mM) and L-glutamine (0.1 mM). Each mixture may be incubated for an appropriate amount of time per isoform within the determined linear phase of the reaction at 25′C. A 60 uL volume of stop solution (1% formic acid with 0.5 uM ^13C9-^15N3-CTP in H2O) may be added and the plate immediately heat-sealed and centrifuged for 10 minutes at 4,000 rpm. Following centrifugation, plates may be loaded onto the Agilent RapidFire microfluidic solid phase extraction system coupled to an API4000 triple quadrupole mass spectrometer (RF/MS) for analysis.
In all cases, the enzyme converts UTP to CTP. Highly specific and sensitive multiple reaction monitoring (MRM) MS methods may be optimised for the detection of the enzymatic reaction product, CTP, and the stable isotope labelled product standard ^13C9-^15N3-CTP. Readout for data analysis may be calculated as the ratio between the peak area of the product CTP and the internal standard ^13C9-^15N3-CTP. For data reporting, the following equation may be used: […]
For each screening plate, the means of the negative (DMSO) and positive control values were used for the calculation of the respective assay window (S/B) and Z′ values. The median of the respective control values was used for calculation of percent inhibition according to the following equation: […]
as §1
Fold selectivity between CTPS1 and CTPS2 was subsequently calculated according to the following equation: […]

[3] = Table 25, compounds wherein R1 is C1-5fluoroalkyl, read-out: CTPS1 (Human CTPS1 Enzyme Inhibition data grouped by potency range)

IC50 [1, 3]: ≤ 100 nM
SMILES: CCOc1cncc(-c2ccc(NC(=O)C3(c4ccnc(NS(=O)(=O)CC(F)F)n4)CCOCC3)nc2)n1 [Example P271, 4-(2-((2,2-difluoroethyl)sulfonamido)pyrimidin-4-yl)-N-(5-(6-ethoxypyrazin-2-yl)pyridin-2-yl)tetrahydro-2H-pyran-4-carboxamide]

IC50 ([1]; Table 24, read-out: CTPS1 (Human CTPS1 Enzyme Inhibition data grouped by potency range)): 100 to 1000 nM
SMILES: CCOc1cncc(-c2ccc(NC(=O)C3(c4ccnc(NS(=O)(=O)N(C)C)n4)CCOCC3)nc2)n1 [Example P248]
Selectivity (fold selectivity between CTPS1 and CTPS2) ([2]; Table 27): +++ (>60 fold (+++))

IC50 ([1]; Table 23, read-out: CTPS1 (Human CTPS1 Enzyme Inhibition data grouped by potency range)): ≤ 100 nM
SMILES: CC(C)Oc1cncc(-c2ccc(NC(=O)C(C)(C)c3ccnc(NS(=O)(=O)C4CC4)n3)nc2)n1 [Example P9]
Selectivity (fold selectivity between CTPS1 and CTPS2) ([2]; Table 26): +++ (>60 fold (+++))

IC50 [1, 3]: ≤ 100 nM
SMILES: CCOc1cncc(-c2ccc(NC(=O)C(F)(CC)c3ccnc(NS(=O)(=O)CC(F)F)n3)nc2)n1 (stereo not drawn) [Example P284, 2-(2-((2,2-difluoroethyl)sulfonamido)pyrimidin-4-yl)-N-(5-(6-ethoxypyrazin-2-yl)pyridin-2-yl)-2-fluorobutanamide]
